In patent publication US20210255193A1, “LYSINE REACTIVE PROBES AND USES THEREOF” (The Scripps Research Institute, priority 2017, published 2021):

Key:
Assay in all cases: competitive isoTOP-ABPP
Format in all cases: binding
LMNA Prelamin-A/C = molecular target: T1, LMNA Prelamin-A/C (Homo sapiens, UniProt P02545); conditions: for isoTOP-ABPP ratio (R) at liganded lysine P02545_K135: 50 uM, in vitro, sol, 231; for isoTOP-ABPP ratio, lysine P02545_K135: 50 uM_231_sol_in vitro
T1 construct: isoTOP-ABPP experiments performed in cell lysates (in vitro); endogenous in cells; host or cells: MDA-MB-231 soluble lysate
T1 sequence (P02545 1-664): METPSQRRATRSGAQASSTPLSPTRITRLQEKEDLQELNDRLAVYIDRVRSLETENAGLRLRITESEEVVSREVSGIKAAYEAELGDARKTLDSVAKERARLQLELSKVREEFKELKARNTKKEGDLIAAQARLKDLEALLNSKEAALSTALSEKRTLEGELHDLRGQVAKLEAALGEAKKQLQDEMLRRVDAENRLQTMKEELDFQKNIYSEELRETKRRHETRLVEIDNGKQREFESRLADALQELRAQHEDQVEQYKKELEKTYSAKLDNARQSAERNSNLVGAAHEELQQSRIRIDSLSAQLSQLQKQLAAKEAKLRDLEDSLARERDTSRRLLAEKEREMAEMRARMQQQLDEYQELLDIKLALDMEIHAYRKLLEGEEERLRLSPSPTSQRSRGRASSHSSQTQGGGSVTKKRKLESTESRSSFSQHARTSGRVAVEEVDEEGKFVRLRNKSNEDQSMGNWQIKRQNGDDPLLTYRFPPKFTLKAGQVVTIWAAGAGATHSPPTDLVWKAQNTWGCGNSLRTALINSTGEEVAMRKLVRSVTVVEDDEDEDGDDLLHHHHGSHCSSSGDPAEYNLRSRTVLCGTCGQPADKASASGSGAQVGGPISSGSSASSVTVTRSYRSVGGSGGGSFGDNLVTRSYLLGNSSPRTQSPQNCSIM
Procedure, shortened: (§1)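 Cell lysate treated in vitro with fragments (50 μM activated esters, 100 μM guanidinylating agents) or DMSO, labelled 1 h at ambient temperature with 0.1 mM STP-alkyne, CuAAC-tagged with light/heavy TEV tags, analysed by MS. R = DMSO/compound MS1 peak-area ratio; lysines with R≥4 called liganded.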

[1] = molecular target: T2, UCHL5 Ubiquitin carboxyl-terminal hydrolase isozyme L5 (Homo sapiens, UniProt Q9Y5K5); conditions: for isoTOP-ABPP ratio (R) at liganded lysine Q9Y5K5_K323: 50 uM, in vitro, sol, 231; for isoTOP-ABPP ratio, lysine Q9Y5K5_K323: 50 uM_231_sol_in vitro
T2 construct: endogenous in cells; host or cells: MDA-MB-231 (soluble fraction of lysate)
T2 sequence (Q9Y5K5 1-329): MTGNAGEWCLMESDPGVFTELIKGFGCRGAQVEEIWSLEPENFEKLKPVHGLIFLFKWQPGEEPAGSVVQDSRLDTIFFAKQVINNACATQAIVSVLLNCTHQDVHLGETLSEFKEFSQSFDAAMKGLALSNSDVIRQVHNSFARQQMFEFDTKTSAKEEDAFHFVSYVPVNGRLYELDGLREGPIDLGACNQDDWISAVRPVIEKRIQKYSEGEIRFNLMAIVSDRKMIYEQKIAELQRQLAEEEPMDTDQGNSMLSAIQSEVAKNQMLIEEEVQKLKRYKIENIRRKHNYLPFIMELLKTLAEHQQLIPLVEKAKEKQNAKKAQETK
Procedure, shortened: as §1

[2] = molecular target: T3, ERAP1 Endoplasmic reticulum aminopeptidase 1 (Homo sapiens, UniProt Q9NZ08); conditions: for isoTOP-ABPP ratio (R) at liganded lysine Q9NZ08_K685: 50 uM, in vitro, sol, 231; for isoTOP-ABPP ratio, lysine Q9NZ08_K685: 50 uM_231_sol_in vitro
T3 construct: endogenous in cells; host or cells: MDA-MB-231 lysate
Procedure, shortened: as §1

[3] = molecular target: T4, RQCD1 Cell differentiation protein RCD1 homolog (Homo sapiens, UniProt Q92600); conditions: for isoTOP-ABPP ratio (R) at liganded lysine Q92600_K230: 50 uM, in vitro, sol, 231; for isoTOP-ABPP ratio, lysine Q92600_K230: 50 uM_231_sol_in vitro
T4 construct: isoTOP-ABPP experiments performed in cell lysates (in vitro); endogenous in cells; host or cells: soluble proteome of human cancer cell lines (MDA-MB-231; Ramos and Jurkat also prepared)
Procedure, shortened: as §1

[4] = molecular target: T5, MTOR Serine/threonine-protein kinase mTOR (Homo sapiens, UniProt P42345); conditions: for isoTOP-ABPP ratio (R) at liganded lysine P42345_K2066: 50 uM, in vitro, sol, 231; for isoTOP-ABPP ratio, lysine P42345_K2066: 50 uM_231_sol_in vitro
T5 construct: isoTOP-ABPP experiments performed in cell lysates (in vitro); endogenous in cells; host or cells: soluble proteome of human cancer cell lines (MDA-MB-231; Ramos and Jurkat also prepared)
Procedure, shortened: as §1

T3 sequence (Q9NZ08 whole entry): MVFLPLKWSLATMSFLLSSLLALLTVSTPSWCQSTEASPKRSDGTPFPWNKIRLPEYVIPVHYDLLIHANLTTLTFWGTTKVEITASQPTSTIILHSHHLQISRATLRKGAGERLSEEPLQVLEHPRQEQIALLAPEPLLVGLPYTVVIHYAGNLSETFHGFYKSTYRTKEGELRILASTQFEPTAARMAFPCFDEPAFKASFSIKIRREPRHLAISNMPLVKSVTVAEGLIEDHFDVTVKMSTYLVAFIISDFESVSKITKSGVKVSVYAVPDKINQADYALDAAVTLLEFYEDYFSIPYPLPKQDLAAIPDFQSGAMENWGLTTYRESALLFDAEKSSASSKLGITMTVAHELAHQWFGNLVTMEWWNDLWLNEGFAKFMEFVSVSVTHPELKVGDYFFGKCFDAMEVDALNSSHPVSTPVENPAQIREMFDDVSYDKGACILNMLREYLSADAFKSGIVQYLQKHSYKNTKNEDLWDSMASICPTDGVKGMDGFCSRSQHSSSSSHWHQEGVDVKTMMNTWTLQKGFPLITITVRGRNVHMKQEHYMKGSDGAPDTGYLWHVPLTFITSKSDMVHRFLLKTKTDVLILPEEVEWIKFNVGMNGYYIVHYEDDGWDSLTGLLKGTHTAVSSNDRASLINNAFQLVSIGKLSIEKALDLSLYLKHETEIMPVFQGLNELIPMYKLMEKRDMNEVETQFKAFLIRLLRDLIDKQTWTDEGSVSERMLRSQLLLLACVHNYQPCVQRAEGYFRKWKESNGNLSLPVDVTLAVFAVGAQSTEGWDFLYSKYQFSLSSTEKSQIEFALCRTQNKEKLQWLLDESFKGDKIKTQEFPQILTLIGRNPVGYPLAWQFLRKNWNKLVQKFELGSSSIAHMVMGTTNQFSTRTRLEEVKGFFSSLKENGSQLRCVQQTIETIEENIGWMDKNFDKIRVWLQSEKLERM
T4 sequence (Q92600 whole entry): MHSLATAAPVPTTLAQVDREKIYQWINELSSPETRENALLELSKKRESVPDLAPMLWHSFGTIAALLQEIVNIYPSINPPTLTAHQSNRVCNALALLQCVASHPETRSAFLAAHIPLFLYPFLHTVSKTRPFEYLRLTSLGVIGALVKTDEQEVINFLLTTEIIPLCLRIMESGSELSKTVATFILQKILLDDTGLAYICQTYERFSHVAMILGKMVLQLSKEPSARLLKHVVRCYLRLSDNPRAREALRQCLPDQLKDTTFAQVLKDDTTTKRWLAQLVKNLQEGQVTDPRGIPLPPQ

Row | SMILES | isoTOP-ABPP ratio (R) at liganded lysine P02545_K135 (LMNA Prelamin-A/C) | isoTOP-ABPP ratio (R) at liganded lysine Q9Y5K5_K323 [1] | isoTOP-ABPP ratio (R) at liganded lysine Q9NZ08_K685 [2] | isoTOP-ABPP ratio (R) at liganded lysine Q92600_K230 [3] | isoTOP-ABPP ratio (R) at liganded lysine P42345_K2066 [4] | isoTOP-ABPP ratio, lysine P02545_K135 (LMNA Prelamin-A/C) | isoTOP-ABPP ratio, lysine Q9Y5K5_K323 [1] | isoTOP-ABPP ratio, lysine Q9NZ08_K685 [2] | isoTOP-ABPP ratio, lysine Q92600_K230 [3] | isoTOP-ABPP ratio, lysine P42345_K2066 [4]
1 | O=C(Oc1ccc([N+](=O)[O-])cc1[N+](=O)[O-])C1CCN(C(=O)OCc2ccccc2)CC1 [fragment 34, 1-Benzyl 4-(2,4-dinitrophenyl) piperidine-1,4-dicarboxylate] | 1.2 | 0.9 | 1.7 | 0.8 | 1.1 |  |  |  |  | 
2 | O=C(CCc1coc2cc(F)ccc2c1=O)Oc1ccc([N+](=O)[O-])cc1[N+](=O)[O-] [fragment 36, 2,4-Dinitrophenyl 3-(7-fluoro-4-oxo-4H-chromen-3-yl)propanoate] | 0.8 | 0.8 | 1.1 | 2.5 | 3.0 |  |  |  |  | 
3 | O=C(Oc1ccc([N+](=O)[O-])cc1[N+](=O)[O-])c1ccc(-c2ccccc2)cc1 [fragment 37, 2,4-Dinitrophenyl [1,1′-biphenyl]-4-carboxylate] | 0.9 | 0.9 | 1.0 | 0.8 | 1.0 |  |  |  |  | 
4 | O=C(CC12CC3CC(CC(C3)C1)C2)Oc1ccc([N+](=O)[O-])cc1[N+](=O)[O-] [fragment 38, 2,4-Dinitrophenyl 2-(adamantan-1-yl)acetate] | 0.8 | 0.9 | 1.0 | 0.9 | 1.1 |  |  |  |  | 
5 | O=C(Oc1ccc([N+](=O)[O-])cc1[N+](=O)[O-])c1ccccc1Nc1cccc(C(F)(F)F)c1 [fragment 40, 2,4-Dinitrophenyl 2-((3-(trifluoromethyl)phenyl)amino)benzoate] | 1.2 | 1.0 | 1.1 | 0.9 | 0.8 |  |  |  |  | 
6 | CC(=O)Oc1ccc([N+](=O)[O-])cc1[N+](=O)[O-] [fragment 43, 2,4-Dinitrophenyl acetate] | 20.0 | 1.0 | 1.1 | 6.8 | 1.6 |  |  |  |  | 
7 | N#Cc1ccc(C(=O)Oc2ccc([N+](=O)[O-])cc2[N+](=O)[O-])cc1 [fragment 44, 2,4-Dinitrophenyl 4-cyanobenzoate] |  |  |  |  |  | 0.9 | 0.9 | 1.6 | 1.0 | 1.7
8 | O=C(CCc1ccc2c(c1)OCO2)Oc1ccc([N+](=O)[O-])cc1[N+](=O)[O-] [fragment 45, 2,4-Dinitrophenyl 3-(benzo[d][1,3]dioxol-5-yl)propanoate] |  |  |  |  |  | 0.9 | 1.5 | 1.3 | 1.7 | 1.1
9 | O=C(ON1C(=O)CCC1=O)c1cc(C(F)(F)F)cc(C(F)(F)F)c1 [fragment 46, 3,5-Bis(trifluoromethyl)benzoic acid NHS ester] |  |  |  |  |  | 0.7 | 1.0 | 2.1 | 1.1 | 1.5
